In the supplement of paper PMC10307832:

These cell lines were tested with C[C@@H](C(=O)N[C@@H](C1CCCCC1)C(=O)N2CCC[C@H]2C(=O)N[C@@H]3[C@@H](CC4=CC=CC=C34)OCC#CC#CCO[C@@H]5CC6=CC=CC=C6[C@@H]5NC(=O)[C@@H]7CCCN7C(=O)[C@H](C8CCCCC8)NC(=O)[C@H](C)NC)NC [AZD5582] + O=C(CCCCCCC(=O)Nc1ccccc1)NO [Vorinostat] (partner 1 µM) (assay: relative viability (nuclei count vs DMSO), 5 days (fraction); higher = more cells survive). Details: first compound 0.05 µM.
Summary of the method: (§1)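 The day after seeding in 1536-well plates, lung cancer cell lines were treated by pin tool with a single drug, or with a fixed anchor-drug dose together with five library-drug doses (not always all listed) in √10 steps. After 5 days, a combined fix-and-stain solution (final 0.05% Triton X-100, 1% formaldehyde, 1 ug/ml Hoechst) was added. Nuclei counted on 4× images gave relative viability as treated counts over vehicle counts, reported as the median of duplicate plates.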

Row | Cell Line | relative viability
1 | NCI-H2347 | 0.483
2 | NCI-H2405 | 1.11
3 | NCI-H3122 | 0.236
4 | PC-3 [JPC-3] | 0.43
5 | PC-14 | 0.687
6 | RERF-LC-KJ | 0.283
7 | SK-LU-1 | 0.292
8 | SK-MES-1 | 1.26
9 | SW 900 | 0.295
10 | SW 1573 | 1.12
11 | UMC-11 | 0.354

Each cell line was assayed with C[C@@H](C(=O)N[C@@H](C1CCCCC1)C(=O)N2CCC[C@H]2C(=O)N[C@@H]3[C@@H](CC4=CC=CC=C34)OCC#CC#CCO[C@@H]5CC6=CC=CC=C6[C@@H]5NC(=O)[C@@H]7CCCN7C(=O)[C@H](C8CCCCC8)NC(=O)[C@H](C)NC)NC [AZD5582] + Cc1nc(Nc2ncc(C(=O)Nc3c(C)cccc3Cl)s2)cc(N2CCN(CCO)CC2)n1 [Dasatinib] (partner 0.075 µM) in the same assay as above. Details: first compound 0.001581 µM.
Summary of the method: as §1

Row | Cell Line | relative viability
12 | NCI-H650 | 0.447
13 | NCI-H661 | 0.866
14 | NCI-H727 | 0.317
15 | NCI-H838 | 0.293
16 | NCI-H1355 | 0.638
17 | NCI-H1395 | 0.437
18 | NCI-H1437 | 0.289
19 | NCI-H1650 | 0.293
20 | NCI-H1651 | 0.428
21 | NCI-H1666 | 0.656
22 | NCI-H1734 | 0.468
23 | NCI-H1755 | 0.398
24 | NCI-H1793 | 0.32
25 | NCI-H1915 | 0.324
26 | NCI-H1944 | 0.244
27 | NCI-H1975 | 0.322
28 | NCI-H1993 | 0.634
29 | NCI-H2009 | 0.297

Row | Cell Line | relative viability
30 | NCI-H2023 | 0.521
31 | NCI-H2085 | 0.265
32 | NCI-H2087 | 0.7
33 | NCI-H2126 | 0.61
34 | NCI-H2170 | 0.494
35 | NCI-H2228 | 0.437
36 | NCI-H2342 | 0.316
37 | NCI-H2347 | 0.304
38 | NCI-H2405 | 0.199
39 | NCI-H3122 | 0.729
40 | PC-3 [JPC-3] | 0.861
41 | PC-14 | 0.258
42 | SK-LU-1 | 0.147
43 | SK-MES-1 | 0.246
44 | SW 900 | 0.482
45 | SW 1573 | 0.56
46 | UMC-11 | 0.424

Same assay, conditions: first compound 0.005 µM

Row | Cell Line | relative viability
47 | NCI-H650 | 0.418
48 | NCI-H661 | 1.15
49 | NCI-H727 | 0.319
50 | NCI-H838 | 0.344
51 | NCI-H1355 | 0.749
52 | NCI-H1395 | 0.458
53 | NCI-H1437 | 0.452
54 | NCI-H1650 | 0.352
55 | NCI-H1651 | 0.478
56 | NCI-H1666 | 0.814
57 | NCI-H1734 | 0.548
58 | NCI-H1755 | 0.456
59 | NCI-H1793 | 0.429
60 | NCI-H1915 | 0.339
61 | NCI-H1944 | 0.228
62 | NCI-H1975 | 0.447
63 | NCI-H1993 | 0.576
64 | NCI-H2009 | 0.382

Row | Cell Line | relative viability
65 | NCI-H2023 | 0.581
66 | NCI-H2085 | 0.366
67 | NCI-H2087 | 0.915
68 | NCI-H2126 | 0.678
69 | NCI-H2170 | 0.571
70 | NCI-H2228 | 0.506
71 | NCI-H2342 | 0.315
72 | NCI-H2347 | 0.663
73 | NCI-H2405 | 0.24
74 | NCI-H3122 | 0.707
75 | PC-3 [JPC-3] | 0.794
76 | PC-14 | 0.302
77 | SK-LU-1 | 0.0852
78 | SK-MES-1 | 0.445
79 | SW 900 | 0.424
80 | SW 1573 | 0.732
81 | UMC-11 | 0.455

Same assay, conditions: first compound 0.01581 µM

Row | Cell Line | relative viability
82 | NCI-H650 | 0.305
83 | NCI-H661 | 0.908
84 | NCI-H727 | 0.505
85 | NCI-H1355 | 0.583
86 | NCI-H1395 | 0.354
87 | NCI-H1437 | 0.387
88 | NCI-H1650 | 0.341
89 | NCI-H1666 | 0.757
90 | NCI-H1734 | 0.434
91 | NCI-H1755 | 0.356
92 | NCI-H1793 | 0.292
93 | NCI-H1915 | 0.267
94 | NCI-H1944 | 0.227
95 | NCI-H1975 | 0.428
96 | NCI-H1993 | 0.557
97 | NCI-H2009 | 0.268
98 | NCI-H2023 | 0.553

Row | Cell Line | relative viability
99 | NCI-H2085 | 0.282
100 | NCI-H2087 | 0.848
101 | NCI-H2126 | 0.555
102 | NCI-H2170 | 0.558
103 | NCI-H2228 | 0.478
104 | NCI-H2342 | 0.27
105 | NCI-H2347 | 0.341
106 | NCI-H2405 | 0.155
107 | NCI-H3122 | 0.802
108 | PC-3 [JPC-3] | 0.97
109 | PC-14 | 0.219
110 | RERF-LC-KJ | 0.723
111 | SK-LU-1 | 0.174
112 | SK-MES-1 | 0.367
113 | SW 900 | 0.393
114 | SW 1573 | 0.573
115 | UMC-11 | 0.447

Same assay, conditions: first compound 0.05 µM

Row | Cell Line | relative viability
116 | NCI-H650 | 0.308
117 | NCI-H661 | 0.873
118 | NCI-H727 | 0.274
119 | NCI-H838 | 0.191
120 | NCI-H1355 | 0.719
121 | NCI-H1395 | 0.46
122 | NCI-H1437 | 0.414
123 | NCI-H1650 | 0.344
124 | NCI-H1651 | 0.552
125 | NCI-H1666 | 0.846
126 | NCI-H1734 | 0.664
127 | NCI-H1755 | 0.363
128 | NCI-H1793 | 0.261
129 | NCI-H1915 | 0.328
130 | NCI-H1944 | 0.238
131 | NCI-H1975 | 0.408
132 | NCI-H1993 | 0.573
133 | NCI-H2009 | 0.307

Row | Cell Line | relative viability
134 | NCI-H2023 | 0.49
135 | NCI-H2085 | 0.355
136 | NCI-H2087 | 0.945
137 | NCI-H2126 | 0.684
138 | NCI-H2170 | 0.471
139 | NCI-H2228 | 0.139
140 | NCI-H2342 | 0.319
141 | NCI-H2347 | 0.303
142 | NCI-H2405 | 0.226
143 | NCI-H3122 | 0.185
144 | PC-3 [JPC-3] | 0.193
145 | PC-14 | 0.257
146 | RERF-LC-KJ | 0.696
147 | SK-LU-1 | 0.0634
148 | SK-MES-1 | 0.279
149 | SW 900 | 0.653
150 | SW 1573 | 0.566
151 | UMC-11 | 0.414
